PubChem BioAssay (NCI)
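Step 1: Grow cells in 96-well plates. Step 2: Expose to compound for 48 hours at 5 concentrations. Step 3: Interpolate endpoints linearly; if unreached, use highest concentration. Definition used: TGI = concentration required for complete inhibition of growth.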

Tests used:
Test in all cases: inhibition of tumour cell growth, NCI panel, 48 h
SW-620 colon = test system: SW-620 colon
OVCAR-3 ovarian = test system: OVCAR-3 ovarian
NCI/ADR-RES ovarian = test system: NCI/ADR-RES ovarian
K-562 leukemia = test system: K-562 leukemia
SK-MEL-2 melanoma = test system: SK-MEL-2 melanoma
SK-MEL-28 melanoma = test system: SK-MEL-28 melanoma
UACC-257 melanoma = test system: UACC-257 melanoma
HL-60(TB) leukemia = test system: HL-60(TB) leukemia
MDA-N = test system: MDA-N
PC-3 prostate = test system: PC-3 prostate
A549 NSCLC = test system: A549 NSCLC

Row | SMILES | TGI (SW-620 colon) | TGI (OVCAR-3 ovarian) | TGI (NCI/ADR-RES ovarian) | TGI (K-562 leukemia) | TGI (SK-MEL-2 melanoma) | TGI (SK-MEL-28 melanoma) | TGI (UACC-257 melanoma) | TGI (HL-60(TB) leukemia) | TGI (MDA-N) | TGI (PC-3 prostate) | TGI (A549 NSCLC)
1 | CC1=NN(c2cccc(Cl)c2)C2(SCC(=O)N2c2nc3ccccc3s2)/C1=C\c1cccs1 (stereo not given) | > 100 µM | 86.8 µM | 48.9 µM | 26.4 µM | 41.8 µM | 85.6 µM | 64 µM | 56 µM | 52.4 µM | 65.6 µM | 92.8 µM
2 | O=C(c1cccs1)N(C(=S)OC12CC3CC(CC(C3)C1)C2)c1ccccc1 | > 100 µM | > 100 µM | > 100 µM | > 100 µM | 39.3 µM | > 100 µM | > 100 µM | 72.5 µM | > 100 µM | 88.5 µM | > 100 µM
3 | O=C(/C=C/c1ccccc1)NNC(=O)c1c(Cl)c(Cl)c(Cl)c(Cl)c1-c1nc2ccccc2[nH]1 | > 100 µM | > 100 µM | 64.9 µM | > 100 µM | 80.8 µM | > 100 µM | 99.1 µM | 50.7 µM | 45.4 µM | > 100 µM | 67.7 µM
4 | Cc1c(N2C(=O)CS(=O)(=O)C2c2cccc(Oc3ccccc3)c2)c(=O)n(-c2ccccc2)n1C (stereo not given) | > 100 µM | > 100 µM | > 100 µM | > 100 µM | > 100 µM | > 100 µM | > 100 µM | 53.4 µM | 62.6 µM | > 100 µM | > 100 µM
5 | Cc1ccccc1C(=O)N/N=C/c1ccc(Sc2nccn2C)c([N+](=O)[O-])c1 | > 100 µM | > 100 µM | > 100 µM | > 100 µM | > 100 µM | > 100 µM | > 100 µM | > 100 µM | > 100 µM | > 100 µM | > 100 µM
6 | COc1nc(C#CC2(O)CCCCC2)nc(OC)n1 | 24.1 µM | 20.4 µM | 68.9 µM | > 100 µM | 27 µM | 30.2 µM | 31.7 µM | 16.3 µM | 26.3 µM | 18.5 µM | 28.1 µM
7 | CCCNC(=O)CCC(C)C1CCC2C3C(C[C@H](OC(C)=O)[C@]12C)[C@@]1(C)CCC2(C[C@H]1C[C@H]3OC(C)=O)OOC1(CC[C@]3(C)C4C[C@H](OC(C)=O)[C@]5(C)C(C(C)CCC(=O)NCCC)CCC5C4[C@H](OC(C)=O)C[C@@H]3C1)OO2 (stereo not given in full) | > 100 µM | > 100 µM | > 100 µM | > 100 µM | > 100 µM | > 100 µM | > 100 µM | > 100 µM | > 100 µM | > 100 µM | > 100 µM
8 | CC12CC3OC(=O)C1COC14OC5(C2C1=O)C(O)(CCC1C4CC(O)C2(O)CC=CC(=O)C12C)C(=O)OC35C (stereo not given) | > 100 µM | > 100 µM | > 100 µM | > 100 µM | > 100 µM | > 100 µM | > 100 µM | > 100 µM | > 100 µM | > 100 µM | > 100 µM
9 | COc1cccc2c1Cc1cc(-c3ccccc3)[n+](C)n1-2 | > 100 µM | > 100 µM | > 100 µM | > 100 µM | 50 µM | > 100 µM | 14.4 µM | 44.9 µM | 26 µM | 89.7 µM | > 100 µM
10 | O=C(/C=C/c1ccc(O)c(-c2cc(C(=O)/C=C/c3ccc(O)cc3)c(O)cc2O)c1)c1ccc(O)cc1O | > 50 µM | 43.8 µM | > 50 µM | 35.1 µM | > 50 µM | 22.1 µM | > 50 µM | > 50 µM | > 50 µM | > 50 µM | > 50 µM
